# Experimental data as given in patent publication US8383183B2, “Sweetness enhancers, sweetness enhanced sweetener compositions, methods for their formulation, and uses” (The Coca-Cola Company, priority 2007, dated 2013).
# “And” between values parts separate entries of the source, which are not always exact repeats. Equal values may be shown once.
# Columns and labels:
# [1] = Rate of dissolution in H2O at 25° C.; assay type: physicochemical
# [2] = test system: sweetness intensity of 6% sucrose; experiment: Sulfamate & 6% sucrose Sweetness Enhancement Test (sensory rating against 6-10% sucrose references); assay type: in vivo; set-up: key to Sweetness Intensity Rating (6-10), subject #1 / Sweetness Intensity Rating (6-10), subject #2 / Sweetness Intensity Rating (6-10), subject #3 / Sweetness Intensity Rating (6-10), subject #4 / Sweetness Intensity Rating (6-10), subject #5 / Average Intensity Rating: sweetness rated 6-10 relative to 6-10% sucrose references
# Procedure: Sensory studies that were carried out on the N-substituted sulfamic acid salts included 1) preliminary sulfamate analogue Sweetness Detection Threshold (SDT) estimation, 2) refined Sweetness Detection Threshold (SDT) estimation, 3) N-substituted sulfamic acid salts mixed with 6% sucrose Sweetness Enhancement Test and 4) repeat of step 3. Reference samples were prepared at 6, 7, 8, 9 and 10% sucrose (w/v). […] Each of the ten samples was then individually rated for sweetness intensity on a scale of 6-10 relative to the 6-10% sucrose references.
# [3] = test system: sweet taste; experiment: Preliminary sulfamate analogue Sweetness Detection Threshold (SDT) estimation, sip-and-spit, one experienced subject; assay type: in vivo; conditions: for sweet taste exhibited: 15.6-1,000 ppm solutions in water, one subject
# Procedure: Sensory studies that were carried out on the N-substituted sulfamic acid salts included 1) preliminary sulfamate analogue Sweetness Detection Threshold (SDT) estimation, 2) refined Sweetness Detection Threshold (SDT) estimation, 3) N-substituted sulfamic acid salts mixed with 6% sucrose Sweetness Enhancement Test and 4) repeat of step 3. A 1,000 ppm sulfamate analogue solution was prepared by dissolution of 20 mg sulfamate analogue in 20 mL purified water. An aliquot (10 mL) of this solution was diluted to 20 mL with water to obtain a 500 ppm solution. Additional 1:1 serial dilutions step were used to obtain 250, 125, 62.5, 31.2 and 15.6 ppm solutions. These solutions were then tasted in ascending order of concentration by one experienced subject by using a sip-and-spit protocol. The subject's estimated SDT was determined to be at the lowest concentration at which sweetness was definitely observed.
# [4] = test system: sweet taste; experiment: N-alkyl sulfamate SDT estimation, sip-and-spit, 5 experienced subjects; assay type: in vivo
# Procedure: A 250 ppm solution of 4 was prepared by dissolution of 50 mg sulfamate in 200 mL purified water. An aliquot (100 mL) of this solution then was diluted to 200 mL with water to obtain a 125 ppm solution. Additional 1:1 serial dilution steps were used to prepare 62.5, 31.2 and 15.6 ppm solutions. These solutions then were tasted in ascending order of concentration by 5 experienced subjects by a sip-and-spit protocol.
# [5] = 125 ppm in 6% sucrose, single test sample, listed as NS
molecule,measurement,setting,value
"C=C1C[C@@]23CC[C@H]4[C@@](C)(CCC[C@@]4(C)C(=O)O[C@@H]4O[C@H](CO)[C@@H](O)[C@H](O)[C@H]4O)[C@@H]2CC[C@]1(O[C@@H]1O[C@H](CO)[C@@H](O)[C@H](O[C@@H]2O[C@H](CO)[C@@H](O)[C@H](O)[C@H]2O)[C@H]1O[C@@H]1O[C@H](CO)[C@@H](O)[C@H](O)[C@H]1O)C3 [Form 1, rebaudioside A]",Rate of dissolution in H2O at 25° C.,[1]; in 60 minutes,Very low (<0.2%
"C=C1C[C@@]23CC[C@H]4[C@@](C)(CCC[C@@]4(C)C(=O)O[C@@H]4O[C@H](CO)[C@@H](O)[C@H](O)[C@H]4O)[C@@H]2CC[C@]1(O[C@@H]1O[C@H](CO)[C@@H](O)[C@H](O[C@@H]2O[C@H](CO)[C@@H](O)[C@H](O)[C@H]2O)[C@H]1O[C@@H]1O[C@H](CO)[C@@H](O)[C@H](O)[C@H]1O)C3 [Form 2, rebaudioside A]",Rate of dissolution in H2O at 25° C.,[1]; in 5 minutes,Intermediate (<30%
"C=C1C[C@@]23CC[C@H]4[C@@](C)(CCC[C@@]4(C)C(=O)O[C@@H]4O[C@H](CO)[C@@H](O)[C@H](O)[C@H]4O)[C@@H]2CC[C@]1(O[C@@H]1O[C@H](CO)[C@@H](O)[C@H](O[C@@H]2O[C@H](CO)[C@@H](O)[C@H](O)[C@H]2O)[C@H]1O[C@@H]1O[C@H](CO)[C@@H](O)[C@H](O)[C@H]1O)C3 [Form 3, rebaudioside A]",Rate of dissolution in H2O at 25° C.,[1]; in 5 minutes,High (>30%
"C=C1C[C@@]23CC[C@H]4[C@@](C)(CCC[C@@]4(C)C(=O)O[C@@H]4O[C@H](CO)[C@@H](O)[C@H](O)[C@H]4O)[C@@H]2CC[C@]1(O[C@@H]1O[C@H](CO)[C@@H](O)[C@H](O[C@@H]2O[C@H](CO)[C@@H](O)[C@H](O)[C@H]2O)[C@H]1O[C@@H]1O[C@H](CO)[C@@H](O)[C@H](O)[C@H]1O)C3 [Form 4, rebaudioside A]",Rate of dissolution in H2O at 25° C.,[1]; in 5 minutes,High (>35.0%
"CC1CCCCC1NS(=O)(=O)[O-].[Na+] (stereo not shown) [sulfamate 2, sodium 1H-2-methyl cyclohexyl sulfamate]",sweetness intensity of a 6.0% sugar solution increased to the equivalent of,[2]; about 430 ppm in 6.0% sugar solution,about 7.3 % sugar solution
same,sweet taste exhibited,[3],exhibit sweet taste
same,off-taste,"[3]; 1,000 ppm in water",some bitterness off-taste problems
same,taste,"[3]; 1,000 ppm in water",slight sweet taste
same,sweet taste of the sulfamate by itself,[3]; no sugar,not sweet by itself
"CC(C)(C)CCNS(=O)(=O)[O-].[Na+] [sulfamate 3A, sodium 1H-3,3-dimethyl butyl sulfamate]",sweetness intensity of a 6.0% sugar solution increased to the equivalent of,[2]; about 406 ppm in 6.0% sugar solution,about 7.0 % sugar solution
same,sweet taste of the sulfamate by itself,[3]; no sugar,not sweet by itself
"CC(C)(C)CCNS(=O)(=O)[O-].[K+] [sulfamate 3B, potassium 1H-3,3-dimethyl butyl sulfamate]",sweetness intensity of a 6.0% sugar solution increased to the equivalent of,[2]; about 200 ppm in 6.0% sugar solution,about 7.0 % sugar solution
same,sweet taste of the sulfamate by itself,[3]; in amounts up to 1000 ppm,not sweet by itself
"O=S(=O)([O-])NC1CC2CCC1C2.[Na+] (stereo not shown) [sulfamate 4, sodium bicycle[2.2.1]heptan-2-yl sulfamate]",Sweetness Detection Threshold (SDT),"[4]; 5 subjects, in water",< 125 ppm
same,taste,"[4]; 15.6 ppm solution, all 5 subjects",absence of taste
same,taste,"[4]; 31.2 ppm solution, all 5 subjects",absence of taste
same,taste,"[4]; 62.5 ppm solution, 3 out of 5 subjects",very faint sweetness
same,"sweetness, sugar equivalent","[4]; 125 ppm solution, 4 out of 5 subjects",less than 1 % sugar equivalent
same,sweetness comparable to that of sucrose,"[4]; 250 ppm sample, all 5 subjects",ca. 2 % sucrose
same,equivalent sweetness intensity by itself,"[4]; about 62 ppm, by itself",< 1 % sugar solution
same,Average Intensity Rating,"[2]; 125 ppm in 6% sucrose, single test sample, mean of 5 subjects, listed as NS",8.2 and 8.4 and 7.2 and 8.6
same,"Sweetness Intensity Rating (6-10), subject #1",[2]; [5],8 and 9 and 7
same,"Sweetness Intensity Rating (6-10), subject #2",[2]; [5],8 and 9 and 7 and 10
same,"Sweetness Intensity Rating (6-10), subject #3",[2]; [5],8 and 7
same,"Sweetness Intensity Rating (6-10), subject #4",[2]; [5],9 and 7
same,"Sweetness Intensity Rating (6-10), subject #5",[2]; [5],8 and 7
same,"average sweetness intensity rating, with 6% Sucrose Test Average","[2]; 125 ppm in 6% sucrose, scale 6-10 relative to 6-10% sucrose references, mean of four test samples",8.1
same,sweetness intensity of a 6.0% sugar solution increased to the equivalent of,[2]; about 125 ppm in 6.0% sugar solution,about 8.1 % sugar solution
same,sweet taste exhibited,[3],exhibit sweet taste
same,off-taste,"[3]; 1,000 ppm in water",no off-taste
same,taste,"[3]; 1,000 ppm in water",strong sweet taste
same,sweet taste of the sulfamate by itself,[3]; no sugar,very faint sweet taste
same,taste,[3]; ca. 62 ppm in water,weak sweet taste
"sodium 1H-1,3,5-triazolyl sulfamate [sulfamate 1]",sweetness intensity of a 6.0% sugar solution increased to the equivalent of,[2]; about 372 ppm in 6.0% sugar solution,about 7.1 % sugar solution
same,sweet taste of the sulfamate by itself,[3]; no sugar,not sweet by itself
sodium 1H-thiazolyl sulfamate [sulfamate 5],sweetness intensity of a 6.0% sugar solution increased to the equivalent of,[2]; about 404 ppm in 6.0% sugar solution,about 6.9 % sugar solution
same,sweet taste of the sulfamate by itself,[3]; no sugar,not sweet by itself
